How the values were obtained:
Assay type in all cases: in vivo
[1] = system: barnyardgrass (Echinochloa crus-galli); assay: Test A preemergence, barnyardgrass; conditions: Preemergence; for Barnyardgrass plant response rating: 125 g ai/ha, visual injury on 0 to 100 scale (0 no effect, 100 complete control), approximately 10 days; for Plant response rating, Barnyardgrass: 0 to 100 scale (0 no effect, 100 complete control)
Summary of the method: (§1)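 Greenhouse pot test in a loam–sand blend; compounds delivered in a non-phytotoxic solvent carrying a surfactant, applied either as a directed spray to soil at seeding or over seedlings 2 to 10 cm high with one to two leaves.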

kochia (Bassia scoparia) [2] = assay: Test A preemergence, kochia; conditions: Preemergence; for Kochia plant response rating: 125 g ai/ha, visual injury on 0 to 100 scale (0 no effect, 100 complete control), approximately 10 days; for Plant response rating, Kochia: 0 to 100 scale (0 no effect, 100 complete control)
Summary of the method: as §1

[3] = system: ragweed (common ragweed, Ambrosia artemisiifolia); assay: Test A preemergence, ragweed; conditions: Preemergence
Summary of the method: as §1

[4] = system: Ryegrass, Italian (Italian ryegrass, Lolium multiflorum); assay: Test A preemergence, Ryegrass, Italian; conditions: Preemergence; for Ryegrass, Italian plant response rating: 125 g ai/ha, visual injury on 0 to 100 scale (0 no effect, 100 complete control), approximately 10 days; for Plant response rating, Ryegrass, Italian: 0 to 100 scale (0 no effect, 100 complete control)
Summary of the method: as §1

[5] = system: Foxtail, Giant (giant foxtail, Setaria faberi); assay: Test A preemergence, Foxtail, Giant; conditions: Preemergence; for Foxtail, Giant plant response rating: 125 g ai/ha, visual injury on 0 to 100 scale (0 no effect, 100 complete control), approximately 10 days; for Plant response rating, Foxtail, Giant: 0 to 100 scale (0 no effect, 100 complete control)
Summary of the method: as §1

[6] = system: pigweed (Amaranthus retroflexus); assay: Test A preemergence, pigweed; conditions: for Pigweed plant response rating: 125 g ai/ha, visual injury on 0 to 100 scale (0 no effect, 100 complete control), approximately 10 days; for Plant response rating, Pigweed: 0 to 100 scale (0 no effect, 100 complete control)
Summary of the method: (§2)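 After sowing into a sand-amended loam, pots for the preemergence test were treated by spraying directly onto soil. In parallel, seedlings at the one- to two-leaf stage and 2 to 10 cm tall were treated postemergence with the identical surfactant-containing formulation.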

[7] = system: barnyardgrass (Echinochloa crus-galli); assay: Test A postemergence, barnyardgrass; conditions: Postemergence, 0 to 100 scale (0 no effect, 100 complete control)
Summary of the method: as §2

kochia (Bassia scoparia) [8] = assay: Test A postemergence, kochia; conditions: Postemergence, 0 to 100 scale (0 no effect, 100 complete control)
Summary of the method: as §1

[9] = system: ragweed (common ragweed, Ambrosia artemisiifolia); assay: Test A postemergence, ragweed; conditions: Postemergence, 0 to 100 scale (0 no effect, 100 complete control)
Summary of the method: as §1

[10] = system: Ryegrass, Italian (Italian ryegrass, Lolium multiflorum); assay: Test A postemergence, Ryegrass, Italian; conditions: Postemergence, 0 to 100 scale (0 no effect, 100 complete control)
Summary of the method: as §1

[11] = system: Foxtail, Giant (giant foxtail, Setaria faberi); assay: Test A postemergence, Foxtail, Giant; conditions: Postemergence, 0 to 100 scale (0 no effect, 100 complete control)
Summary of the method: as §1

[12] = system: pigweed (Amaranthus retroflexus); assay: Test A postemergence, pigweed; conditions: Postemergence, 0 to 100 scale (0 no effect, 100 complete control)
Summary of the method: as §1

[13] = system: wheat (Triticum aestivum); assay: Test A postemergence, wheat; conditions: Postemergence, 0 to 100 scale (0 no effect, 100 complete control)
Summary of the method: as §2

corn (Zea mays) = assay: Test A postemergence, corn; conditions: Postemergence, 0 to 100 scale (0 no effect, 100 complete control)
Summary of the method: as §1

[14] = system: blackgrass (Alopecurus myosuroides); assay: Test A postemergence, blackgrass; conditions: Postemergence, 0 to 100 scale (0 no effect, 100 complete control)
Summary of the method: as §1

[15] = system: galium (catchweed bedstraw, Galium aparine); assay: Test A postemergence, galium; conditions: Postemergence, 0 to 100 scale (0 no effect, 100 complete control)
Summary of the method: as §2

[16] = 125 g ai/ha, visual injury approx. 10 days
[17] = 500 g ai/ha, visual injury vs untreated controls after approx. 10 days
[18] = 500 g ai/ha, visual injury, approx. 10 days
[19] = 1000 g ai/ha, visual injury, approx. 10 days

| SMILES | Barnyardgrass plant response rating [1] | Plant response rating, Barnyardgrass ([1]; 500 g ai/ha) | Kochia plant response rating (kochia (Bassia scoparia) [2]) | Plant response rating, Kochia (kochia (Bassia scoparia) [2]; 500 g ai/ha) | Ryegrass, Italian plant response rating [4] | Plant response rating, Ryegrass, Italian ([4]; 500 g ai/ha) | Foxtail, Giant plant response rating [5] | Plant response rating, Foxtail, Giant ([5]; 500 g ai/ha) | Pigweed plant response rating [6] | Plant response rating, Pigweed ([6]; 500 g ai/ha) | Plant response rating, Barnyardgrass [7, 16] | Plant response rating, Kochia (kochia (Bassia scoparia) [8]; [16]) | Plant response rating, Ragweed [9, 16] | Plant response rating, Ryegrass, Italian [10, 16] | Plant response rating, Foxtail, Giant [11, 16] | Plant response rating, Pigweed [12, 16] | Plant response rating, Wheat [13, 16] | Plant response rating, Corn (corn (Zea mays); [16]) | Plant response rating, Blackgrass [14, 16] | Plant response rating, Galium [15, 16] | other results |
| --- | --- | --- | --- | --- | --- | --- | --- | --- | --- | --- | --- | --- | --- | --- | --- | --- | --- | --- | --- | --- | --- |
| Cc1cc(C)c(C2=NOC3CCCCC23)cc1NS(=O)(=O)C(F)(F)F (racemic) [Compound 125] | 100 | 100 | 90 | 100 | 100 | 100 | 100 | 100 | 100 | 100 | 80 | 70 | 60 | 0 | 20 | 60 | 30 | 0 | 10 | 90 | Ragweed plant response rating ([3]; 125 g ai/ha, visual injury on 0 to 100 scale (0 no effect, 100 complete control), approximately 10 days): 60; Plant response rating, Ragweed ([3]; 500 g ai/ha, 0 to 100 scale (0 no effect, 100 complete control)): 80; Barnyardgrass plant response rating [7, 17]: 90; Kochia plant response rating (kochia (Bassia scoparia) [8]; [17]): 80; Ragweed plant response rating [9, 17]: 80; Ryegrass, Italian plant response rating [10, 17]: 70; Foxtail, Giant plant response rating [11, 17]: 50; Pigweed plant response rating [12, 17]: 90; Wheat plant response rating [13, 17]: 70; Corn plant response rating (corn (Zea mays); [17]): 60; Blackgrass plant response rating [14, 17]: 60; Galium plant response rating [15, 17]: 90 |
| O=C(c1ccc(Cl)c(NS(=O)(=O)C(F)(F)F)c1)N1CCOCC1 [Compound 15] | 0 | 0 | 0 | 80 | 30 | 30 | 10 | 70 | 60 | 70 | 0 | 40 | 70 | 30 | 0 | 0 | 0 | 0 | 0 | 50 | Plant response rating, Barnyardgrass [7, 18]: 50; Plant response rating, Kochia (kochia (Bassia scoparia) [8]; [18]): 70; Plant response rating, Ragweed [9, 18]: 80; Plant response rating, Ryegrass, Italian [10, 18]: 0; Plant response rating, Foxtail, Giant [11, 18]: 50; Plant response rating, Pigweed [12, 18]: 30; Plant response rating, Wheat [13, 18]: 0; Plant response rating, Corn (corn (Zea mays); [18]): 0; Plant response rating, Blackgrass [14, 18]: 30; Plant response rating, Galium [15, 18]: 60 |
| CCN(CC)C(=O)c1cc(NS(=O)(=O)C(F)(F)F)c(Cl)cc1C [Compound 21] | 80 | 100 | 0 | 0 | 30 | 100 | 20 | 100 | 40 | 60 | 20 | 10 | 50 | 0 | 0 | 0 | 0 | 0 | 10 | 50 | Plant response rating, Barnyardgrass [7, 18]: 40; Plant response rating, Kochia (kochia (Bassia scoparia) [8]; [18]): 30; Plant response rating, Ragweed [9, 18]: 90; Plant response rating, Ryegrass, Italian [10, 18]: 50; Plant response rating, Foxtail, Giant [11, 18]: 20; Plant response rating, Pigweed [12, 18]: 40; Plant response rating, Wheat [13, 18]: 30; Plant response rating, Corn (corn (Zea mays); [18]): 30; Plant response rating, Blackgrass [14, 18]: 10; Plant response rating, Galium [15, 18]: 60 |
| Cc1cc(Cl)c(NS(=O)(=O)C(F)(F)F)cc1C(=O)N(C)C [Compound 23] | 90 | 100 | 80 | 80 | 40 | 100 | 70 | 100 | 80 | 100 | 50 | 40 | 80 | 30 | 50 | 70 | 50 | 20 | 30 | 80 | Plant response rating, Barnyardgrass [7, 18]: 70; Plant response rating, Kochia (kochia (Bassia scoparia) [8]; [18]): 70; Plant response rating, Ragweed [9, 18]: 80; Plant response rating, Ryegrass, Italian [10, 18]: 80; Plant response rating, Foxtail, Giant [11, 18]: 90; Plant response rating, Pigweed [12, 18]: 80; Plant response rating, Wheat [13, 18]: 70; Plant response rating, Corn (corn (Zea mays); [18]): 70; Plant response rating, Blackgrass [14, 18]: 30; Plant response rating, Galium [15, 18]: 90 |
| Cc1ccc(C(=O)N2CCC(C(F)(F)F)CC2)cc1NS(=O)(=O)C(F)(F)F [Compound 263] |  |  |  |  |  |  |  |  |  |  |  |  |  |  |  |  |  |  |  |  | Plant response rating, Barnyardgrass ([1]; 1000 g ai/ha): 30; Plant response rating, Kochia (kochia (Bassia scoparia) [2]; 1000 g ai/ha): 20; Plant response rating, Ryegrass, Italian ([4]; 1000 g ai/ha): 50; Plant response rating, Foxtail, Giant ([5]; 1000 g ai/ha): 70; Plant response rating, Pigweed ([6]; 1000 g ai/ha): 60; Plant response rating, Barnyardgrass [7, 19]: 30; Plant response rating, Kochia (kochia (Bassia scoparia) [8]; [19]): 10; Plant response rating, Ragweed [9, 19]: 0; Plant response rating, Ryegrass, Italian [10, 19]: 80; Plant response rating, Foxtail, Giant [11, 19]: 0; Plant response rating, Pigweed [12, 19]: 0; Plant response rating, Wheat [13, 19]: 0; Plant response rating, Corn (corn (Zea mays); [19]): 20; Plant response rating, Blackgrass [14, 19]: 20; Plant response rating, Galium [15, 19]: 60 |

— US20230278972A1, “SUBSTITUTED HALOALKYL SULFONANILIDE HERBICIDES” (FMC Corporation, priority 2020, published 2023)
